Data on three molecules can be found in patent US11771685B2, “Compounds for the treatment of neurological or mitochondrial diseases” (MUSC FOUNDATION FOR RESEARCH DEVELOPMENT, priority 2018, dated 2023).

In one data set the test system is HT22 cells. The data set can be described thus: HT22 oxytosis (glutamate-induced cell death) neuroprotection assay. In kind it is cell-based, mouse. The following applies: 10 mM Glu. On the procedure:
The HT22 murine hippocampal cell system was chosen as an initial phenotypic screen for neuroprotective efficacy (Andreux et al., 2013; Andreux et al., 2014; Ohlow et al., 2017; Schubert and Maher, 2012). HT22 cells exposed to high extracellular Glu ([…]) undergo oxytosis, a non-apoptotic programmed cell death involving glutathione (GSH) depletion followed by ROS accumulation, oxidative damage, and a cytotoxic signaling cascade (Tan et al., 2001). Glu blocks the −xC cystine antiporter, causing (Tan et al., 2001) cells to accumulate severe oxidative stress, mitochondrial depolarization, disrupted mitochondrial morphology, and Ca^2+ influx (Tan et al., 2001; Yang et al., 2011; Cheng et al., 2013—cellular events that may occur in neurological diseases, including epilepsy. Thus, the immortalized HT22 cell line is a well-established model of neuronal oxidative stress (Sagara and Schubert, 1998; Matsumoto et al., 1996; Albrecht et al., 2010; Ha and Park, 2006; van Leyen et al., 2005; Tobaben et al., 2011), and a verified model of neurodegeneration to screen for potential neuroprotective drugs (Albrecht et al., 2010; van Leyen et al., 2008; Lewerenz et al., 2009; Lewerenz et al., 2003).
Consistent with that work, most of the 2-amino compounds achieved protection of HT22 cells against glutamate-induced oxytosis in the nM to μM range. […] Neuroprotection based on relative cell viability compared to +Glu and −Glu control cells was measured.
The HT22 neuronal cell line is a subclone of HT4, derived from the mouse hippocampus (Morimoto and Koshland, 1990). […] The HT22 cells used in this study were kindly provided by Dr. David Schubert (The Salk Institute for Biological Studies, La Jolla, CA, USA). The cells were grown in Dulbecco's Modified Eagle's Medium (DMEM/high glucose) supplemented with 10% fetal bovine serum (Hyclone) and 5 mL of antibiotic-antimycotic (Amphotericin B, Penicillin, and Streptomycin; Invitrogen) at 37° C. in 5% CO2.
HT-22 cells were seeded onto 96-well plates at 2.5×10^3 cells per well in 75 μL of medium and maintained at 37° C. in 5% CO2 overnight prior to the initiation of experimental treatments. For glutamate toxicity testing, cells were subsequently treated with 25 μL of medium containing glutamate (monosodium glutamate, Sigma, 1 M stock concentration in media, to achieve a final concentration of 10 mM) plus compound (stock in DMSO) and maintained at 37° C. in 5% CO2 for 24 hr. CellTiter-Blue® (resazurin cell viability assay reagent) was then added to each well at a final concentration of 0.125 mg/mL. The mixture was allowed to incubate for 2-4 hr until sufficient color change occurred. Cell viability was measured as a function of resorufin fluorescence intensity using a Tecan M200 Pro spectrophotometer, 560 nm/590 nm (excitation/emission). Cell viability was calculated as a percentage compared with untreated controls. EC50s were determined using GraphPad Prism's “log(inhibitor) vs. normalized response-Variable slope” function. Morphology of HT22 cells following treatments was determined by phase-contrast microscopy.
Statistical analyses were performed with GraphPad Prism 6 software. For the in vitro HT22 oxytosis assay, dose-response data were fit using GraphPad Prism's log(inhibitor) vs normalized response-variable slope parameters to determine EC50 values and 95% confidence intervals. For the zebrafish locomotive anti-seizure activity data, multiple comparisons were made using a one-way analysis of variance (ANOVA) with a Kruskal-Wallis Test, followed by the Dunn's Method to determine significant differences between all pairs or between control and experimental groups using the Dunn Method for Joint Ranking. Differences were considered statistically significant when p<0.05. Data from zebrafish experiments are represented as scatter dot plots of individual measurements, with means±standard deviation indicated by bars.

A short description of data set [1]: Clinical observations in dosed mice. In kind it is in vivo. Particulars: for pigmented urine: efficacy studies, 5% DMSO:95% Neobee formulation; for clinical symptoms during the IV study: intravenous 5 mg/kg, CD-1 mice. Here is the method: PK studies on 3 and 25 were carried out in CD-1 mice. Three males were dosed via oral gavage needle for oral administration at 20 mg/kg (10 mL/kg) or via intravenous administration at 5 mg/kg (10 mL/kg). Blood samples were taken at time intervals between 5 min and 24 hr from each animal.
PO PK experiments were repeated for 25, with oral dosing at 20 mg/kg and 10 mL/kg of a suspension with 1% Tween 80:1% carboxymethylcellulose in water.
Table 2 provides a summary of efficacy studies in vivo in mice, and in rat brain slices, using the 5% DMSO:95% Neobee formulation.

The mark [2] stands for this setting: Mus musculus, HT-22, 24 h, HT22 cells, 24 hr, 95% CI in parentheses.

For the molecule `CCC#CCNC1=CC(=O)c2ccccc2C1=O` [Compound 3, 2-(Pent-2-yn-1-ylamino)naphthalene-1,4-dione], the EC50 with HT22 cells (setting [2]) was found to be 1010 nM. In data set [1], the pigmented urine entry is listed as “showed pigmented urine” and the “clinical symptoms during the IV study” value is on record as “no abnormal clinical symptoms”.
Regarding `CC(C)CCNC1=CC(=O)c2ccccc2C1=O` [Compound 17, 2-(Isopentylamino)naphthalene-1,4-dione], the EC50 in the data set on HT22 cells (Mus musculus, HT-22, HT22 cells) was over 12000 nM. Moreover, in data set [1], the pigmented urine entry was “Pigmented urine was not seen”.
`CC(C)CCOC1=CC(=O)c2ccccc2C1=O` [Compound 25, 2-(Isopentyloxy)naphthalene-1,4-dione]: the EC50 is 23.9 nM in the data set with HT22 cells (HT22 cells, 24 hr, 95% CI in parentheses) and about 24 nM in the data set with HT22 cells (setting [2]). In addition, the “clinical symptoms during the IV study” value in data set [1] was “no abnormal clinical symptoms”. The “clinical symptoms after oral dosing” value in data set [1] (oral 20 mg/kg, suspension 1% Tween 80:1% carboxymethylcellulose in water) was “No abnormal clinical symptoms”.
